Laboratory results taken from patent US6706663B2, “Herbicidal 3-heterocyclic substituted benzisothiazole and benzisoxazole compounds” (Wyeth, priority 2000, dated 2004).

Assays:
[1] = tested on: ABUTH (Abutilon theophrasti); test: Postemergence herbicidal evaluation; assay type: in vivo, Medic.; details: for ABUTH herbicidal rating: postemergence
Procedure, shortened: (§1)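 Seedlings grown for about two weeks were sprayed postemergence and then kept under standard greenhouse care. Injury was rated visually 4–5 weeks after treatment on a 0–9 scale against untreated controls, and ratings from repeat tests were averaged.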

[2] = tested on: IPOHE (Ipomoea hederacea); test: Postemergence herbicidal evaluation; assay type: in vivo, (L.) Jacq.; details: for IPOHE herbicidal rating: postemergence
Procedure, shortened: as §1

SETVI (Setaria viridis) [3] = test: Postemergence herbicidal evaluation; assay type: in vivo, (L.) Beau; details: for SETVI herbicidal rating: postemergence
Procedure, shortened: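 Visual injury score (0-9: stand, vigor, malformation, size, chlorosis, overall appearance vs untreated control) taken four to five weeks post-spray. Two-week-old seedlings received about 0.0040 to 1.000 kg/ha active compound in acetone/water with 0.5% TWEEN 20.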

[4] = tested on: CASOB (Cassia obtusifolia); test: Preemergence herbicidal evaluation; assay type: in vivo, L.; details: rated 4-5 weeks after treatment
Procedure, shortened: (§2)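 Each species was sown separately in potting soil over roughly one inch of soil, and the surface sprayed with compound dissolved in aqueous acetone. Assessment used a 0–9 visual scale against a control after four to five weeks.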

[5] = tested on: CHEAL (Chenopodium album); test: Preemergence herbicidal evaluation; assay type: in vivo, L.; details: rated 4-5 weeks after treatment
Procedure, shortened: as §2

[6] = tested on: AMBEL (Ambrosia artemisifolia); test: Preemergence herbicidal evaluation; assay type: in vivo, L.; details: rated 4-5 weeks after treatment
Procedure, shortened: as §2

[7] = tested on: IPOHE (Ipomoea hederacea); test: Preemergence herbicidal evaluation; assay type: in vivo, (L.) Jacq.; details: rated 4-5 weeks after treatment
[8] = tested on: ECHORC (Echinochloa oryzoides); test: Flooded paddy, preemergence weed control; assay type: in vivo, Echinochloa oryzoides (Ard.) Fritsch.; details: rated 3-4 weeks after treatment, 0-9 rating scale
Procedure, shortened: (§3)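 Preemergence, flooded: propagules planted at 0.5 cm depth in silt loam, water level maintained at 1.5 to 3 cm over soil, containers kept on greenhouse benches. Activity scored 0-9 by eye relative to a control plant.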

ORYSAT (Rice, Tebonnet) [9] = test: Preemergence herbicidal evaluation; assay type: in vivo, Oryza sativa, (L.) Tebonnet; details: rated 4-5 weeks after treatment
[10] = tested on: SAGPY (Sagittaria pygmaea); test: Flooded paddy, preemergence weed control; assay type: in vivo, L.; details: rated 3-4 weeks after treatment, 0-9 rating scale
Procedure, shortened: as §3

ORYSAT (Rice, Tebonnet) [11] = test: Postemergence herbicidal evaluation; assay type: in vivo, Oryza sativa, (L.) Tebonnet; details: for ORYSAT herbicidal rating: postemergence
Procedure, shortened: as §1

SETVI (Setaria viridis) [12] = test: Preemergence herbicidal evaluation; assay type: in vivo, (L.) Beau; details: rated 4-5 weeks after treatment
Procedure, shortened: as §2

[13] = tested on: ECHCG (Echinochloa crus-galli); test: Preemergence herbicidal evaluation; assay type: in vivo, (L.) Beau; details: rated 4-5 weeks after treatment
Procedure, shortened: as §2

GALAP (Galium aparine) = test: Postemergence herbicidal evaluation; assay type: in vivo; details: for GALAP herbicidal rating: postemergence
Procedure, shortened: as §1

[14] = tested on: GLXMAW (Soybean, Williams); test: Postemergence herbicidal evaluation; assay type: in vivo, Glycine max, (L.) Merr. cv Williams; details: for GLXMAW herbicidal rating: postemergence
Procedure, shortened: as §1

CYPIR (Cyperus iria) = test: Flooded paddy, preemergence weed control; assay type: in vivo; details: rated 3-4 weeks after treatment, 0-9 rating scale
Procedure, shortened: as §3

[15] = tested on: ECHCG (Echinochloa crus-galli); test: Postemergence herbicidal evaluation; assay type: in vivo, (L.) Beau; details: for ECHCG herbicidal rating: postemergence
Procedure, shortened: as §1

[16] = tested on: MOOVA (Monochoria vaginalis); test: Flooded paddy, preemergence weed control; assay type: in vivo, Presl.; details: rated 3-4 weeks after treatment, 0-9 rating scale
Procedure, shortened: as §3

ZEAMX (Corn, Field) = test: Postemergence herbicidal evaluation; assay type: in vivo, Zea mays, L.; details: for ZEAMX herbicidal rating: postemergence
Procedure, shortened: as §1

ORYSAT (Rice, Tebonnet) [17] = test: Flooded paddy, post-transplant rice tolerance; assay type: in vivo, Oryza sativa, (L.) Tebonnet; details: flooded paddy, post-transplant rice, rated 3-4 weeks after treatment, 0-9 rating scale
Procedure, shortened: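 Steps: transplant two ten-day-old seedlings into silt loam; flood to 1.5-3 cm above soil; apply herbicide post-transplant; maintain water on greenhouse benches; rate stand, vigor, malformation, size and chlorosis on a 0-9 visual scale versus control.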

C[C@@H]1C[C@H](C)OC(c2nsc3ccc(-n4c(=O)cc(C(F)(F)F)n(C)c4=O)cc23)O1 (stereo partly drawn) [Compound 50, 3-[3-[(4R,6S)-4,6-dimethyl-m-dioxan-2-yl]-1,2-benzisothiazol-5-yl]-1-methyl-6-(trifluoromethyl)uracil]
ABUTH herbicidal rating ([1]; rate 0.0320 kg/ha): 9.0
ABUTH herbicidal rating ([1]; rate 0.0620 kg/ha): 9.0
IPOHE herbicidal rating ([2]; rate 0.0320 kg/ha): 9.0
IPOHE herbicidal rating ([2]; rate 0.0620 kg/ha): 9.0
SETVI herbicidal rating (SETVI (Setaria viridis) [3]; rate 0.0320 kg/ha): 9.0
SETVI herbicidal rating (SETVI (Setaria viridis) [3]; rate 0.0620 kg/ha): 9.0
Preemergence herbicidal rating CASOB ([4]; Rate 0.0620 kg/ha): 5.5
Preemergence herbicidal rating CASOB ([4]; Rate 0.1250 kg/ha): 6.5
Preemergence herbicidal rating CASOB ([4]; Rate 0.2500 kg/ha): 9.0
Preemergence herbicidal rating CHEAL ([5]; Rate 0.0620 kg/ha): 9.0
Preemergence herbicidal rating CHEAL ([5]; Rate 0.1250 kg/ha): 9.0
Preemergence herbicidal rating CHEAL ([5]; Rate 0.2500 kg/ha): 9.0
Preemergence herbicidal rating AMBEL ([6]; Rate 0.0620 kg/ha): 9.0
Preemergence herbicidal rating AMBEL ([6]; Rate 0.1250 kg/ha): 9.0
Preemergence herbicidal rating AMBEL ([6]; Rate 0.2500 kg/ha): 9.0
Preemergence herbicidal rating IPOHE ([7]; Rate 0.0620 kg/ha): 8.0
Preemergence herbicidal rating IPOHE ([7]; Rate 0.1250 kg/ha): 7.5
Preemergence herbicidal rating IPOHE ([7]; Rate 0.2500 kg/ha): 9.0
herbicidal rating, ECHORC ([8]; rate 0.0080 kg/ha): 7.0
herbicidal rating, ECHORC ([8]; rate 0.0320 kg/ha): 7.5
herbicidal rating, ECHORC ([8]; rate 0.1250 kg/ha): 9.0
Preemergence herbicidal rating ORYSAT (ORYSAT (Rice, Tebonnet) [9]; Rate 0.0620 kg/ha): 6.5
Preemergence herbicidal rating ORYSAT (ORYSAT (Rice, Tebonnet) [9]; Rate 0.1250 kg/ha): 8.5
Preemergence herbicidal rating ORYSAT (ORYSAT (Rice, Tebonnet) [9]; Rate 0.2500 kg/ha): 9.0
herbicidal rating, SAGPY ([10]; rate 0.0080 kg/ha): 0.0
herbicidal rating, SAGPY ([10]; rate 0.0320 kg/ha): 0.0
herbicidal rating, SAGPY ([10]; rate 0.1250 kg/ha): 4.5
ORYSAT herbicidal rating (ORYSAT (Rice, Tebonnet) [11]; rate 0.0320 kg/ha): 5.5
ORYSAT herbicidal rating (ORYSAT (Rice, Tebonnet) [11]; rate 0.0620 kg/ha): 4.5
Preemergence herbicidal rating SETVI (SETVI (Setaria viridis) [12]; Rate 0.0620 kg/ha): 9.0
Preemergence herbicidal rating SETVI (SETVI (Setaria viridis) [12]; Rate 0.1250 kg/ha): 9.0
Preemergence herbicidal rating SETVI (SETVI (Setaria viridis) [12]; Rate 0.2500 kg/ha): 9.0
Preemergence herbicidal rating ECHCG ([13]; Rate 0.0620 kg/ha): 9.0
Preemergence herbicidal rating ECHCG ([13]; Rate 0.1250 kg/ha): 9.0
Preemergence herbicidal rating ECHCG ([13]; Rate 0.2500 kg/ha): 9.0
GALAP herbicidal rating (GALAP (Galium aparine); rate 0.0320 kg/ha): 3.0
GALAP herbicidal rating (GALAP (Galium aparine); rate 0.0620 kg/ha): 8.0
GLXMAW herbicidal rating ([14]; rate 0.0320 kg/ha): 7.5
GLXMAW herbicidal rating ([14]; rate 0.0620 kg/ha): 7.5
herbicidal rating, CYPIR (CYPIR (Cyperus iria); rate 0.0080 kg/ha): 0.0
herbicidal rating, CYPIR (CYPIR (Cyperus iria); rate 0.0320 kg/ha): 7.5
herbicidal rating, CYPIR (CYPIR (Cyperus iria); rate 0.1250 kg/ha): 8.0
ECHCG herbicidal rating ([15]; rate 0.0320 kg/ha): 3.0
ECHCG herbicidal rating ([15]; rate 0.0620 kg/ha): 3.0
herbicidal rating, MOOVA ([16]; rate 0.0320 kg/ha): 9.0
herbicidal rating, MOOVA ([16]; rate 0.1250 kg/ha): 9.0
ZEAMX herbicidal rating (ZEAMX (Corn, Field); rate 0.0320 kg/ha): 4.0
ZEAMX herbicidal rating (ZEAMX (Corn, Field); rate 0.0620 kg/ha): 5.0
herbicidal rating, ORYSAT (rice tolerance) (ORYSAT (Rice, Tebonnet) [17]; rate 0.0080 kg/ha): 3.0
herbicidal rating, ORYSAT (rice tolerance) (ORYSAT (Rice, Tebonnet) [17]; rate 0.0320 kg/ha): 6.5
herbicidal rating, ORYSAT (rice tolerance) (ORYSAT (Rice, Tebonnet) [17]; rate 0.1250 kg/ha): 8.5

C[C@@H]1OC(c2nsc3ccc(-n4c(=O)cc(C(F)(F)F)n(C)c4=O)cc23)O[C@@H]1C (stereo partly drawn) [Compound 47, 3-[3-[(4R,5S)-4,5-dimethyl-1,3-dioxolan-2-yl]-1,2-benzisothiazol-5-yl]-1-methyl-6-(trifluoromethyl)uracil]
Postemergence herbicidal rating, ABUTH ([1]; rate 0.0320 kg/ha): 9.0
Postemergence herbicidal rating, ABUTH ([1]; rate 0.0620 kg/ha): 9.0
Postemergence herbicidal rating, IPOHE ([2]; rate 0.0320 kg/ha): 9.0
Postemergence herbicidal rating, IPOHE ([2]; rate 0.0620 kg/ha): 9.0
Postemergence herbicidal rating, SETVI (SETVI (Setaria viridis) [3]; rate 0.0320 kg/ha): 9.0
Postemergence herbicidal rating, SETVI (SETVI (Setaria viridis) [3]; rate 0.0620 kg/ha): 9.0
Preemergence herbicidal rating CASOB ([4]; Rate 0.0620 kg/ha): 4.5
Preemergence herbicidal rating CASOB ([4]; Rate 0.1250 kg/ha): 7.5
Preemergence herbicidal rating CASOB ([4]; Rate 0.2500 kg/ha): 9.0
Preemergence herbicidal rating CHEAL ([5]; Rate 0.0620 kg/ha): 9.0
Preemergence herbicidal rating CHEAL ([5]; Rate 0.1250 kg/ha): 9.0
Preemergence herbicidal rating CHEAL ([5]; Rate 0.2500 kg/ha): 9.0
Preemergence herbicidal rating AMBEL ([6]; Rate 0.0620 kg/ha): 9.0
Preemergence herbicidal rating AMBEL ([6]; Rate 0.1250 kg/ha): 9.0
Preemergence herbicidal rating AMBEL ([6]; Rate 0.2500 kg/ha): 9.0
Preemergence herbicidal rating IPOHE ([7]; Rate 0.0620 kg/ha): 7.5
Preemergence herbicidal rating IPOHE ([7]; Rate 0.1250 kg/ha): 8.0
Preemergence herbicidal rating IPOHE ([7]; Rate 0.2500 kg/ha): 9.0
herbicidal rating, ECHORC ([8]; rate 0.0080 kg/ha): 5.0
herbicidal rating, ECHORC ([8]; rate 0.0320 kg/ha): 8.5
herbicidal rating, ECHORC ([8]; rate 0.1250 kg/ha): 9.0
Preemergence herbicidal rating ORYSAT (ORYSAT (Rice, Tebonnet) [9]; Rate 0.0620 kg/ha): 7.5
Preemergence herbicidal rating ORYSAT (ORYSAT (Rice, Tebonnet) [9]; Rate 0.1250 kg/ha): 7.5
Preemergence herbicidal rating ORYSAT (ORYSAT (Rice, Tebonnet) [9]; Rate 0.2500 kg/ha): 9.0
herbicidal rating, SAGPY ([10]; rate 0.0080 kg/ha): 0.0
herbicidal rating, SAGPY ([10]; rate 0.0320 kg/ha): 7.5
herbicidal rating, SAGPY ([10]; rate 0.1250 kg/ha): 9.0
Postemergence herbicidal rating, ORYSAT (ORYSAT (Rice, Tebonnet) [11]; rate 0.0320 kg/ha): 4.0
Postemergence herbicidal rating, ORYSAT (ORYSAT (Rice, Tebonnet) [11]; rate 0.0620 kg/ha): 6.5
Preemergence herbicidal rating SETVI (SETVI (Setaria viridis) [12]; Rate 0.0620 kg/ha): 9.0
Preemergence herbicidal rating SETVI (SETVI (Setaria viridis) [12]; Rate 0.1250 kg/ha): 8.5
Preemergence herbicidal rating SETVI (SETVI (Setaria viridis) [12]; Rate 0.2500 kg/ha): 9.0
Preemergence herbicidal rating ECHCG ([13]; Rate 0.0620 kg/ha): 9.0
Preemergence herbicidal rating ECHCG ([13]; Rate 0.1250 kg/ha): 9.0
Preemergence herbicidal rating ECHCG ([13]; Rate 0.2500 kg/ha): 9.0
Postemergence herbicidal rating, GALAP (GALAP (Galium aparine); rate 0.0320 kg/ha): 9.0
Postemergence herbicidal rating, GALAP (GALAP (Galium aparine); rate 0.0620 kg/ha): 9.0
Postemergence herbicidal rating, GLXMAW ([14]; rate 0.0320 kg/ha): 7.5
Postemergence herbicidal rating, GLXMAW ([14]; rate 0.0620 kg/ha): 8.5
herbicidal rating, CYPIR (CYPIR (Cyperus iria); rate 0.0080 kg/ha): 0.0
herbicidal rating, CYPIR (CYPIR (Cyperus iria); rate 0.0320 kg/ha): 8.5
herbicidal rating, CYPIR (CYPIR (Cyperus iria); rate 0.1250 kg/ha): 9.0
Postemergence herbicidal rating, ECHCG ([15]; rate 0.0320 kg/ha): 0.0
Postemergence herbicidal rating, ECHCG ([15]; rate 0.0620 kg/ha): 3.0
herbicidal rating, MOOVA ([16]; rate 0.0320 kg/ha): 9.0
herbicidal rating, MOOVA ([16]; rate 0.1250 kg/ha): 9.0
Postemergence herbicidal rating, ZEAMX (ZEAMX (Corn, Field); rate 0.0320 kg/ha): 3.5
Postemergence herbicidal rating, ZEAMX (ZEAMX (Corn, Field); rate 0.0620 kg/ha): 4.0
herbicidal rating, ORYSAT (rice tolerance) (ORYSAT (Rice, Tebonnet) [17]; rate 0.0080 kg/ha): 3.0
herbicidal rating, ORYSAT (rice tolerance) (ORYSAT (Rice, Tebonnet) [17]; rate 0.0320 kg/ha): 7.5
herbicidal rating, ORYSAT (rice tolerance) (ORYSAT (Rice, Tebonnet) [17]; rate 0.1250 kg/ha): 9.0
